How the values were obtained:
[1] = target: T1, islet amyloid polypeptide (IAPP) (Homo sapiens, UniProt P10997); assay: ThT-based kinetic assay of IAPP fibrillation; format: biochemical; conditions: for relative t50 of IAPP fibrillation versus control reaction: 15 μM IAPP, equimolar ratio
T1 construct: IAPP is a 37 residue neuropancreatic hormone peptide; purchased Anaspec (Fremont, Calif.)
T1 sequence (P10997 34-70 limits assumed): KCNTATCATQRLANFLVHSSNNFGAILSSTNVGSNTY
Excerpt: The aggregation kinetics of IAPP was probed using an exogenous reporter, Thioflavin T (ThT), which quantifies the amount of fibers in solution without perturbing the aggregation kinetics of IAPP (see Wolfe, L. S.; Calabrese, M. F.; Nath, A.; Blaho, D. V.; Miranker, A. D.; Xiong, Y. Proc. Natl. Acad. Sci. U.S.A. 2010, 107, 16863-16868; Levine, H. Protein Sci. 1993, 2, 404-410). […] The kinetics of IAPP fibrillation was quantified using the reaction midpoint, t50, which is the time required to reach 50% fluorescence in the fibrillation reaction (FIG. 8).
Kinetic assays were conducted on a FlexStation 3 Multi-Mode Microplate reader from Molecular Devices (Sunnyvale, Calif.). Experiments were conducted in triplicate in a 96-well plate with a final volume of 200 μL per well. Every measurement was an average of 50 readings. The aggregation of IAPP was initiated by its addition from a stock solution (1 mM in DMSO) to phosphate buffer. The stoichiometry ratio for ThT to IAPP was 0.5:1. Peptide aggregation was monitored by ThT fluorescence (λex=445 nm and λem=485 nm). The blank sample contained all the components of the peptide samples except peptide. The sample data were processed by subtracting the blank and renormalizing the fluorescence intensity by setting the maximum value to 1.
Kinetic assays in the presence of the compounds of the invention were conducted under the same conditions. Small molecules were added from a stock solution (1 mM or 10 mM in DMSO) to keep the final concentration of DMSO less than 1.0% (v/v). Small molecules were added to the wells with ThT and buffer and mixed gently with a pipette before adding IAPP. To keep the conditions identical, an equal amount of DMSO was added to the wells with IAPP only reactions. For the aggregation kinetics of Aβ42, the peptide was dissolved in 1N NaOH (0.5-1 mM) and vortexed for 2 min. to ensure the complete solubility. The aggregation of 3 μM Aβ42 was initiated by addition of peptide from a stock solution (in 1 N NaOH, 0.5-1 mM) to phosphate buffer.
Kinetic profiles were processed using Origin (version 9.1). Kinetic curves were fit using the built-in sigmoidal fit. Each run was fit independently to extract the t50 (time required to reach 50% of the maximum fluorescence intensity). Error bars represent standard deviations from the mean of at least three independent experiments.
The membrane model system selected for the amyloid assays is a mixture of DOPG (dioleoylphosphatidylglycerol) and DOPC (dioleoylphosphatidylcholine) at 3:7 molar ratio, which mimics physiological conditions (Ono, K.; Condron, M. M.; Teplow, D. B. Proc. Natl. Acad. Sci. U.S.A. 2009, 106, 14745-14750). The lipid catalyzed aggregation of IAPP was initiated by adding freshly prepared 15 μM IAPP (1 mM stock solution in DMSO) to the phosphate buffer (50 mM NaPi, 150 mM KCl, pH 7.4) containing 15 μM ThT and 750 μM of unilamellar liposomes (LUVs, DOPG:DOPC, 3:7, d=100 nm).

[2] = target: T1, islet amyloid polypeptide (IAPP); assay: Transmission electron microscopy (TEM) of IAPP fibers; conditions: 10 μM IAPP, equimolar ratio
Procedure: […] Aliquots of these samples were then applied to glow-discharged carbon-coated 300-mesh copper grids for 2 min and dried. Grids were negatively stained with uranyl acetate (2%, w/v) and dried. Micrographs of grids were examined on a Phillips CM12 Cryoelectron Microscope equipped with Gatan 4 k×2.7 k CCD camera at 120-kV accelerating voltage.

RIN-m cells = assay: Cell viability (CellTiter Blue), compound alone without IAPP; format: cell-based, Rat; conditions: concentrations used for cell viability assays, no IAPP
Procedure: For cell toxicity assays, Rat insulinoma cells (RIN-m) were as they are considered to be a good model for pancreatic β-cells (see Huang, C.; Lin, C.; Haataja, L., Gurlo, T., Butler, A. E., Rizza, R. A., and Butler, P. C. Diabetes, 2007, 56, 2016-2027). Rat insulinoma RIN-m cells (ATCC, Manassas, Va.) were cultured in RPMI medium supplemented with 10% fetal bovine serum, 1% penicillin/streptomycin, […] sodium pyruvate, and […] β-mercaptoethanol (Life Technologies, Carlsbad, Calif.) at 37° C. and 5% CO2. Upon reaching ˜95% confluence, cells were washed with phosphate buffered saline (VWR, Radnor, Pa.), split using 0.25% Trypsin-EDTA (Life Technologies), and plated in clear 96-well plates (Corning, Glenview, Ill.) for cell viability assays.
Cell viability was measured using the CellTiter Blue (CTB, Promega, Madison, Wis.) fluorescence-based assay. Cells were plated at a density of 20,000 cells per well in 96 well plates. After 48 h of incubation at 37° C. and 5% CO2, cells were washed with 100 μL of PBS. […] Fluorescence of the dye was measured on a FlexStation3 microplate reader (Molecular Devices, Sunnyvale, Calif.). […] Percent viability was calculated as per the following equation: % Viability=100*[(<S>−<P>)/(<N>−<P>)]
Where <S>, <P>, and <N> are the average fluorescence intensities of the sample, positive control, and negative control, respectively.

[3] = target: T1, islet amyloid polypeptide (IAPP); assay: PICUP SDS-PAGE silver staining of IAPP oligomerization; format: biochemical; conditions: 15 μM IAPP, equimolar ratio, up to 300 min
Procedure: The effect of ADH-101 on the oligomerization of IAPP was evaluated using performance photo-induced cross-linking of unmodified proteins (PICUP) SDS-PAGE-silver staining as described in Ono, K.; Condron, M. M.; Teplow, D. B. Proc. Natl. Acad. Sci. U.S.A. 2009, 106, 14745-14750 (FIG. 2E). IAPP was incubated in a buffer in the presence and absence of ADH-101 at an equimolar ratio, and the solutions were then treated with the cross-linking agent at various time intervals (FIG. 2E). IAPP forms oligomers of varying sizes as a function of time (FIG. 2E, Lane i-iv). […] Without wishing to be bound by any theory, it is postulated that ADH-101 forms a complex with monomeric IAPP and abolishes the oligomerization of IAPP.

CCOC(=O)c1cc(NC(=O)c2cc(NC(=O)c3cc([N+](=O)[O-])cn3CC(C)C)cn2CC(C)C)cn1CCC(=O)O [ADH-101]
antagonist of oligomerization, fibrillation, and/or aggregation of IAPP (in words) [1]: effective antagonist | inhibition of IAPP aggregation ([1]; de novo (no lipid membrane), fivefold excess): completely abolishes | relative t50 of IAPP fibrillation versus control reaction ([1]; de novo / lipid free): 4.4 fold | change in the intensity of ThT ([1]; identical conditions without IAPP): no significant change | relative t50 of IAPP fibrillation versus control reaction ([1]; lipid catalyzed (750 μM LUVs, DOPG:DOPC 3:7)): 2.7 fold | fold better inhibitor of IAPP fibrillation than Acid Fuchsin ([1]; lipid catalyzed conditions): 3.5 fold | fold better inhibitor of IAPP fibrillation than Curcumin ([1]; lipid catalyzed conditions): 2.2 fold | fold better inhibitor of IAPP fibrillation than EGCG ([1]; lipid catalyzed conditions): 3.3 fold | inhibition of IAPP fibrillation ([1]; lipid catalyzed, stoichiometric ratio 10:1 (ADH-101:IAPP)): completely inhibits | fiber formation by TEM ([2]; 12 hours): no formation of fibers | fiber formation by TEM ([2]; 24 h): formation of amorphous fibers | toxicity to the cells (RIN-m cells): not toxic | IAPP oligomerization (PICUP) [3]: completely inhibits the formation of large aggregates

— patent US11124479B2, “Oligopyrroles as antagonists of islet amyloid polypeptide oligomerization” (New York University, priority 2017, dated 2021)
